Experimental data as given in US10457707B2, “Substituted urea depsipeptide analogs as activators of the CLPP endopeptidase” (priority 2015, dated 2019).
Values after ≈ are worked out from the molar mass of the structure shown. Like-named read-outs stand apart in the source and are kept apart here. *1 amine or outer side, *2 acyl side, *3 side chain or, on linkers, in order; H or OH if unused. Where a SMILES comes first, the peptide text is derived from it. Bridges are numbered along the chain shown (N, C = ends). [ ]: non-standard residue; d: D form. The star is where a group is joined. ξ: configuration not given here. NH(1,3-benzodioxol-5-yl) = c1cc2c(cc1N*)OCO2; Phe(3,5-F2) = N[C@@H](Cc1cc(F)cc(F)c1)C(=O)O; NH(4-OCF3-phenyl) = FC(F)(F)Oc1ccc(N*)cc1; Morpholine(3S-CO) = O=C(O)[C@@H]1COCCN1; Pro(4S-Me) = C[C@@H]1CN[C@H](C(=O)O)C1; Pro(4R-Me) = C[C@H]1CN[C@H](C(=O)O)C1; NMeaThr = CN[C@H](C(=O)O)[C@H](C)O; Hyp = O=C(O)[C@@H]1C[C@@H](O)CN1; NH(4-Me-phenyl) = Cc1ccc(N*)cc1; ξNMeThr = CNC(C(=O)O)[C@@H](C)O; aThr = C[C@H](O)[C@H](N)C(=O)O; Pip = O=C(O)[C@@H]1CCCCN1; X1 = N#Cc1cc(N*)ccc1F; CO = O=C([*:1])[*:2]

How the values were obtained:
[1] = tested on: Enterococcus faecalis, ATCC 33186; assay: Minimal inhibitory concentration assay (microbroth dilution); format: cell-based
Method in brief: (§1)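 Compound is serially diluted two-fold in the appropriate broth, and bacterial inoculum at about 10^5 cfu/mL is added so the highest final concentration is 200 μM. Plates stay overnight at 37 °C under aerobic conditions before growth is scored by eye.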

[2] = biological target: T1, Sa-ClpP (Staphylococcus aureus, UniProt Q2G036); assay: Sa-ClpP casein-BODIPY ClpP activation assay, method variant not marked in Table 5; format: biochemical, S. aureus
T1 construct: made in house; host or cells: E. coli BL21(DE3)
T1 sequence (Q2G036 1-195): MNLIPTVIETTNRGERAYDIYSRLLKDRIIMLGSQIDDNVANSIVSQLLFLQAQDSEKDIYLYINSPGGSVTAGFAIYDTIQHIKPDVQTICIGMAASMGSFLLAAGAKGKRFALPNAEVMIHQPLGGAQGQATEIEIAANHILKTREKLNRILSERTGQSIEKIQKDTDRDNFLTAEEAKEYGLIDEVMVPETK
Method in brief: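 EC50 for activation derived by dose-response fitting of casein digestion rates, run in triplicate. Conditions: 37° C, pH 8 buffer with 200 mM KCl and 1 mM TCEP, 10 μM Sa-ClpP, 25 μg/ml BODIPY FL casein, compound at 0-1000 μM; signal at 485/528 nm followed 45 min.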

[3] = tested on: Staphylococcus aureus, USA 300; assay: Minimal inhibitory concentration assay; format: cell-based; conditions: USA300, read-out: Minimal Inhibitory Concentrations S. aureus USA 300
Method in brief: as §1

[4] = tested on: Staphylococcus aureus, USA 300 wherein ClpP is inactivated; assay: Minimal inhibitory concentration assay; format: cell-based
Method in brief: as §1

[5] = Enterococcus faecalis, ATCC33186; read-out: Minimal Inhibitory Concentrations E. faecalis ATCC 33186
[6] = values without ** or † mark, assay variant not stated, read-out: ClpP Activation EC50
[7] = Enterococcus faecalis, ATCC33186, read-out: Minimal Inhibitory Concentrations E. faecalis ATCC 33186

`C[C@H]1C[C@H]2C(=O)O[C@@H](C)[C@H](NC(=O)[C@H](Cc3cc(F)cc(F)c3)NC(=O)Nc3ccc(OC(F)(F)F)cc3)C(=O)N3CCC[C@H]3C(=O)N3CCOC[C@H]3C(=O)N[C@@H](C)C(=O)N2C1` [Compound 201, (S)-3-(3,5-difluorophenyl)-2-(3-(4-(trifluoromethoxy)phenyl)ureido)-N-((6aS,12S,13S,15aS,17S,21S,23aS)-13,17,21-trimethyl-6,11,15,20,23-pentaoxooctadecahydro-6H,11H,15H-[1,4]oxazino[3,4-i]dipyrrolo[2,1-c:2′,1′-l][1]oxa[4,7,10,13]tetraazacyclohexadecin-12-yl)propanamide] ({NH(4-OCF3-phenyl)-CO}-[Phe(3,5-F2)][aThr]P[Morpholine(3S-CO)]A[Pro(4S-Me)]; ester 2-C) was tested, and the MIC [1, 5] was 0.098 µM (≈ 0.0862 µg/mL), the EC50 [2, 6] was 330 ± 10 nM and the MIC [3] was 0.049 µM (≈ 0.0431 µg/mL). The “Minimal Inhibitory Concentrations S. aureus USA 300 ΔClpP” value [4] was 50 µM.

For `Cc1ccc(NC(=O)N[C@@H](Cc2cc(F)cc(F)c2)C(=O)N[C@@H]2C(=O)N3CCC[C@H]3C(=O)N(C)[C@@H]([C@H](C)O)C(=O)N[C@@H](C)C(=O)N3C[C@@H](C)C[C@H]3C(=O)O[C@H]2C)cc1` [Compound 202, (S)-3-(3,5-difluorophenyl)-N-((2S,6S,9S,11aS,17S,18S,20aS)-9-((S)-1-hydroxyethyl)-2,6,10,18-tetramethyl-5,8,11,16,20-pentaoxohexadecahydro-1H,5H,16H-dipyrrolo[2,1-c:2′,1′-L][1]oxa[4,7,10,13]tetraazacyclohexadecin-17-yl)-2-(3-(p-tolyl)ureido)propanamide] ({NH(4-Me-phenyl)-CO}-[Phe(3,5-F2)][aThr]P[NMeaThr]A[Pro(4S-Me)]; ester 2-C), the MIC [1, 7] was 0.049 µM (≈ 0.0398 µg/mL), the EC50 [2, 6] was 480 ± 30 nM and the MIC [3] was 0.195 µM (≈ 0.158 µg/mL). The “Minimal Inhibitory Concentrations S. aureus USA 300 ΔClpP” value [4] was 200 µM.

`C[C@H]1C[C@H]2C(=O)O[C@@H](C)[C@H](NC(=O)[C@H](Cc3cc(F)cc(F)c3)NC(=O)Nc3ccc(OC(F)(F)F)cc3)C(=O)N3CCC[C@H]3C(=O)N(C)[C@@H]([C@H](C)O)C(=O)N[C@@H](C)C(=O)N2C1` [Compound 203, (S)-3-(3,5-difluorophenyl)-N-((2S,6S,9S,11aS,17S,18S,20aS)-9-((S)-1-hydroxyethyl)-2,6,10,18-tetramethyl-5,8,11,16,20-pentaoxohexadecahydro-1H,5H,16H-dipyrrolo[2,1-c:2′,1′-l][1]oxa[4,7,10,13]tetraazacyclohexadecin-17-yl)-2-(3-(4-(trifluoromethoxy)phenyl)ureido)propanamide] ({NH(4-OCF3-phenyl)-CO}-[Phe(3,5-F2)][aThr]P[NMeaThr]A[Pro(4S-Me)]; ester 2-C) showed an MIC [1, 5] of 0.781 µM (≈ 0.689 µg/mL), an EC50 [2, 6] of 430 ± 10 nM and an MIC [3] of 0.098 µM (≈ 0.0864 µg/mL). The “Minimal Inhibitory Concentrations S. aureus USA 300 ΔClpP” value [4] was 50 µM.

In the case of `Cc1ccc(NC(=O)N[C@@H](Cc2ccccc2)C(=O)N[C@H]2COC(=O)[C@@H]3C[C@@H](C)CN3C(=O)[C@H](C)NC(=O)[C@@H]3CCCCN3C(=O)[C@@H]3CCCN3C2=O)cc1C` [Compound 206, (S)—N-((2R,6S,8aS,14aS,20S,23aS)-2,6-dimethyl-5,8,14,19,23-pentaoxooctadecahydro-1H,5H,14H,19H-pyrido[2,1-i]dipyrrolo[2,1-c:2′,1′-l][1]oxa[4,7,10,13]tetraazacyclohexadecin-20-yl)-2-(3-(3,4-dimethylphenyl)ureido)-3-phenylpropanamide], the MIC [1, 7] is reported as < 0.2 µM and the EC50 [2, 6] is reported as 1600 ± 300 nM.

With `Cc1ccc(NC(=O)N[C@@H](Cc2cc(F)cc(F)c2)C(=O)N[C@H]2COC(=O)[C@@H]3C[C@@H](C)CN3C(=O)[C@H](C)NC(=O)[C@@H]3CCCCN3C(=O)[C@@H]3CCCN3C2=O)cc1C` [Compound 207, (S)-3-(3,5-difluorophenyl)-N-((2R,6S,8aS,14aS,20S,23aS)-2,6-dimethyl-5,8,14,19,23-pentaoxooctadecahydro-1H,5H,14H,19H-pyrido[2,1-i]dipyrrolo[2,1-c:2′,1′-l][1]oxa[4,7,10,13]tetraazacyclohexadecin-20-yl)-2-(3-(3,4-dimethylphenyl)ureido)propanamide] the MIC [1, 7] was < 0.2 µM and the EC50 [2, 6] was 8300 ± 1900 nM.

For `C[C@@H]1C[C@H]2C(=O)OC[C@H](NC(=O)[C@H](Cc3cc(F)cc(F)c3)NC(=O)Nc3ccc4c(c3)OCO4)C(=O)N3C[C@H](O)C[C@H]3C(=O)N3CCOC[C@H]3C(=O)N[C@@H](C)C(=O)N2C1` [Compound 318, (S)-2-(3-(benzo[d][1,3]dioxol-5-yl)ureido)-3-(3,5-difluorophenyl)-N-((6aS,8R,12S,15aS,17R,21S,23aS)-8-hydroxy-17,21-dimethyl-6,11,15,20,23-pentaoxooctadecahydro-6H,11H,15H-[1,4]oxazino[3,4-i]dipyrrolo[2,1-c:2′,1′-l][1]oxa[4,7,10,13]tetraazacyclo-hexadecin-12-yl)propanamide] ({NH(1,3-benzodioxol-5-yl)-CO}-[Phe(3,5-F2)]S[Hyp][Morpholine(3S-CO)]A[Pro(4R-Me)]; ester 2-C), the MIC [1, 5] was > 20 µM, the EC50 [2] was 460 ± 60 nM and the MIC [3] was 100 µM (≈ 84.2 µg/mL).

In the case of `Cc1ccc(NC(=O)N[C@@H](Cc2cc(F)cc(F)c2)C(=O)N[C@H]2COC(=O)[C@@H]3C[C@@H](C)CN3C(=O)[C@H](C)NC(=O)C([C@@H](C)O)N(C)C(=O)[C@@H]3CCCN3C2=O)cc1` (stereo partly drawn) [Compound 322, (S)-3-(3,5-difluorophenyl)-N-((2R,6S,9R,11aS,17S,20aS)-9-((R)-1-hydroxyethyl)-2,6,10-trimethyl-5,8,11,16,20-pentaoxohexadecahydro-1H,5H,16H-dipyrrolo[2,1-c:2′,1′-l][1]oxa[4,7,10,13]tetraazacyclohexadecin-17-yl)-2-(3-(p-tolyl)ureido)propanamide] ({NH(4-Me-phenyl)-CO}-[Phe(3,5-F2)]SP[ξNMeThr]A[Pro(4R-Me)]; ester 2-C), the MIC [1, 7] is reported as > 20 µM, the EC50 [2, 6] is reported as 560 ± 30 nM and the “Minimal Inhibitory Concentrations S. aureus USA 300 ΔClpP” value [4] is reported as 0.625 µM.

For `Cc1ccc(NC(=O)N[C@@H](Cc2cc(F)cc(F)c2)C(=O)N[C@H]2COC(=O)[C@@H]3C[C@@H](C)CN3C(=O)[C@H](C)NC(=O)C3CCCCN3C(=O)[C@@H]3C[C@@H](O)CN3C2=O)cc1` (stereo partly drawn) [Compound 323, (S)-3-(3,5-difluorophenyl)-N-((2R,6S,8aR,14aS,16R,20S,23aS)-16-hydroxy-2,6-dimethyl-5,8,14,19,23-pentaoxooctadecahydro-1H,5H,14H,19H-pyrido[2,1-i]dipyrrolo[2,1-c:2′,1′-l][1]oxa[4,7,10,13]tetraazacyclohexadecin-20-yl)-2-(3-(p-tolyl)ureido)propanamide], the EC50 [2, 6] was 670 ± 20 nM, the MIC [3] was 1.25 µM (≈ 1.01 µg/mL) and the “Minimal Inhibitory Concentrations S. aureus USA 300 ΔClpP” value [4] was >20 µM.

`C[C@@H]1C[C@H]2C(=O)O[C@@H](C)[C@H](NC(=O)[C@H](Cc3cc(F)cc(F)c3)NC(=O)Nc3ccc(F)c(C#N)c3)C(=O)N3CCC[C@H]3C(=O)N3CCCC[C@H]3C(=O)N[C@@H](C)C(=O)N2C1` [Compound 324, (S)-2-(3-(3-cyano-4-fluorophenyl)ureido)-3-(3,5-difluorophenyl)-N-((2R,6S,8aS,14aS,20S,21S,23aS)-2,6,21-trimethyl-5,8,14,19,23-pentaoxooctadecahydro-1H,5H,14H,19H-pyrido[2,1-i]dipyrrolo[2,1-c:2′,1′-l][1]oxa[4,7,10,13]tetraazacyclo-hexadecin-20-yl)propanamide] ({X1-CO}-[Phe(3,5-F2)][aThr]P[Pip]A[Pro(4R-Me)]; ester 2-C) was tested, and the EC50 [2] was 500 ± 30 nM, the MIC [3] was 0.625 µM (≈ 0.523 µg/mL) and the “Minimal Inhibitory Concentrations S. aureus USA 300 ΔClpP” value [4] was >20 µM.

For `C[C@@H]1C[C@H]2C(=O)OC[C@H](NC(=O)[C@H](Cc3cc(F)cc(F)c3)NC(=O)Nc3ccc4c(c3)OCO4)C(=O)N3C[C@H](O)C[C@H]3C(=O)N3CCCCC3C(=O)N[C@@H](C)C(=O)N2C1` (stereo partly drawn) [Compound 325, (S)-2-(3-(benzo[d][1,3]dioxol-5-yl)ureido)-3-(3,5-difluorophenyl)-N-((2R,6S,8aR,14aS,16R,20S,23aS)-16-hydroxy-2,6-dimethyl-5,8,14,19,23-pentaoxooctadecahydro-1H,5H,14H,19H-pyrido[2,1-i]dipyrrolo[2,1-c:2′,1′-l][1]oxa[4,7,10,13]tetraazacyclo-hexadecin-20-yl)propanamide], the EC50 [2] was 350 ± 20 nM, the MIC [3] was 2.5 µM (≈ 2.1 µg/mL) and the “Minimal Inhibitory Concentrations S. aureus USA 300 ΔClpP” value [4] was >20 µM.

In the case of `C[C@@H]1C[C@H]2C(=O)O[C@@H](C)[C@H](NC(=O)[C@H](Cc3cc(F)cc(F)c3)NC(=O)Nc3ccc(F)c(C#N)c3)C(=O)N3C[C@H](O)C[C@H]3C(=O)N3CCOC[C@H]3C(=O)N[C@@H](C)C(=O)N2C1` [Compound 326, (S)-2-(3-(3-cyano-4-fluorophenyl)ureido)-3-(3,5-difluorophenyl)-N-((6aS,8R,12S,13S,15aS,17R,21S,23aS)-8-hydroxy-13,17,21-trimethyl-6,11,15,20,23-pentaoxooctadecahydro-6H,11H,15H-[1,4]oxazino[3,4-i]dipyrrolo[2,1-c:2′,1′-l][1]oxa[4,7,10,13]tetraazacyclo-hexadecin-12-yl)propanamide] ({X1-CO}-[Phe(3,5-F2)][aThr][Hyp][Morpholine(3S-CO)]A[Pro(4R-Me)]; ester 2-C), the EC50 [2] is reported as 460 ± 40 nM, the MIC [3] is reported as 20 µM (≈ 17.1 µg/mL) and the “Minimal Inhibitory Concentrations S. aureus USA 300 ΔClpP” value [4] is reported as >20 µM.
